Measurements from patent US10865203B2, “Ligands selective to alpha 6 subunit-containing GABAA receptors and their methods of use” (UWM Research Foundation, Inc., priority 2015, dated 2020).
“Also recorded” adds a separate entry of the source.

Assays:
[1] = Microsomal stability assay, mouse liver microsomes; format: in vitro ADME; conditions: 10 μM test compound, 0.5 mg/mL protein, 37° C.
Description: (§1) 4 μL of 1 mM test compound at a final concentration of 10 μM dissolved in DMSO/ACN/Methanol/Ethanol was preincubated at 37° C. for 5 minutes on a digital heating shaking dry bath (Fischer scientific, Pittsburgh, Pa.) in a mixture containing 282 μL of water, 80 μL of phosphate buffer (0.5 M, pH 7.4), 20 μL of NADPH Regenerating System Solution A (BD Bioscience, San Jose, Calif.) and 4 μL of NADPH Regenerating System Solution B (BD Bioscience, San Jose, Calif.) in a total volume of 391.2 μL. Following preincubation, the reaction was initiated by addition of 8.8 μL of either human liver microsomes (BD Gentest, San Jose, Calif.), mouse liver microsomes (Life technologies, Rockford, Ill.), at a protein concentration of 0.5 mg/mL. Aliquots of 50 μL were taken at time intervals of 0 (without microsomes), 10, 20, 30, 40, 50 and 60 minutes. Each aliquot was added to 100 μL of cold acetonitrile solution containing 1 μM/2 μM internal standard. This was followed by sonication for 10 seconds and centrifugation at 10,000 rpm for 5 minutes. 100 μL of the supernatant was transferred into Spin-X HPLC filter tubes (Corning Incorporated, NY) and centrifuged at 13,000 rpm for 5 minutes. […] The ratio of the peak areas of the internal standard and test compound was calculated for every time point and the natural log of the ratio were plotted against time to determine the linear slope (k). […] All experiments were repeated three times in duplicates.

[2] = Microsomal stability assay, human liver microsomes; format: in vitro ADME; conditions: 10 μM test compound, 0.5 mg/mL protein, 37° C.
Description: as §1

[3] = target: T1, α6β3γ2 receptor (Rattus norvegicus, UniProt P30191+P63079); assay: Electrophysiology in Xenopus oocytes, modulation of GABA currents; format: cell-based; conditions: modulation of GABA EC3 currents
T1 construct: expressed in transfected cells; host or cells: Xenopus laevis oocytes injected with subunit mRNA (3:1:5)
Description: Mature female Xenopus laevis (Nasco, Fort Atkinson, Wis., USA) were anaesthetized in a bath of ice-cold 0.17% Tricain (Ethyl-m-aminobenzoat, Sigma-Aldrich, St. Louis, Mo., USA) before decapitation and transfer of the frog's ovary to ND96 medium (96 mM NaCl, 2 mM KCl, 1 mM MgCl2, 5 mM HEPES; pH 7.5). Following incubation in 1 mg/mL collagenase (Sigma-Aldrich, St. Louis, Mo., USA) for 30 min, stage 5 to 6 oocytes were singled out of the ovary and defolliculated using a platinum wire loop. Oocytes were stored and incubated at 18° C. in NDE medium (96 mM NaCl, 2 mM KCl, 1 mM MgCl2, 5 mM HEPES, 1.8 mM CaCl2; pH 7.5) that was supplemented with 100 U per mL-1 penicillin, 100 μg per mL-1 streptomycin and 2.5 mM pyruvate. Oocytes were injected with an aqueous solution of mRNA. A total of 2.5 ng of mRNA per oocyte was injected. Subunit ratio was 1:1:5 for αxβγ2 (x=1, 2, 3, 5) and 3:1:5 for α4/6β3γ2 and αβδ receptors. Injected oocytes were incubated for at least 36 h before electrophysiological recordings. Oocytes were placed on a nylon-grid in a bath of NDE medium. For current measurements, the oocytes were impaled with two microelectrodes (2-3MΩ), which were filled with 2 M KCl. The oocytes were constantly washed by a flow of 6 mL per min-1 NDE that could be switched to NDE containing GABA and/or drugs. Drugs were diluted into NDE from DMSO solutions resulting in a final concentration of 0.1% DMSO. […] To test for modulation of GABA induced currents by compounds, a GABA concentration that was titrated to trigger 3-5% of the respective maximum GABA-elicited current of the individual oocyte (EC3-5) was applied to the cell together with various concentrations of tested compounds. All recordings were performed at room temperature at a holding potential of −60 mV using a Warner OC-725C TEV (Warner Instrument, Hamden, Conn., USA) or a Dagan CA-1B Oocyte Clamp or a Dagan TEV-200A TEV (Dagan Corporation, Mineapolis, Minn., USA). Data were digitized using a Digidata 1322A or 1550 data acquisition system (Axon Instruments, Union City, Calif., USA), recorded using Clampex 10.5 software (Molecular Devices, Sunnyvale, Calif., USA), and analyzed using Clampfit 10.5 and GraphPad Prism 6.0 (La Jolla, Calif., USA) software. Concentration-response data were fitted using the Hill equation. Data are given as mean±SEM from at least three oocytes of two batches.
For selected test compounds full dose response curves were recorded in α1-6β3γ2 receptors. For selected compounds, dose response curves in additional receptor subtypes (α1, 4, 6β3δ, α6β1, 2γ2, α1-6β3) were also obtained. For a wider panel of compounds, a two point screening pharmacology was obtained at 1 and 10 μM compound concentrations.

[4] = tested on: METH-impaired PPI in C57/B6 mice; assay: PPI test, methamphetamine-impaired prepulse inhibition; format: in vivo, mouse; conditions: for rescue of METH-impaired PPI: mice, compound 10 mg/kg i.p. 15 min before METH 2 mg/kg i.p.
Description: All animal experiments conducted at NTU were approved by the Institutional Animal Care and Use Committee of College of Medicine, National Taiwan University. C57/B6 (8-10 weeks) mice were used for the PPI test and Wistar rats (8-9 weeks) were used in the migraine model. Animals were housed in an animal room with a 12-h light/12-h dark cycle and free access to food and water.
The PPI test was conducted with a PPI apparatus (SR-LAB, San Diego Instruments, San Diego, Calif.) consisting of a startle chamber equipped with various programming acoustic stimulations. After acclimation, the mouse was gently placed in the startle chamber for a 4 min acclimation period with a background noise of 65 dB, which continued throughout the whole PPI test session. One PPI test session consisted of 4 types of startle trials, including the trial with the startle pulse (115 dB) alone (PULSEALONE; 115 dB, 20 ms), two trials with the startle pulse paired with 71 and 77 dB prepulses, respectively (PREPULSE+PULSE; 71 dB+115 dB and 77 dB+115 dB), and the trial without stimulus (NOSTIM; background 65 dB only). A test session started and ended, respectively, with four NOSTIM trials and four PULSEALONE trials. In between, each of the four types of trials was presented 14 times randomly, that is, 56 trials were given in a test session. The intertrial interval was given randomly from 5 to 20 s. In the PREPULSE+PULSE trial, a 71 or 77 dB prepulse was given 120 ms before the 115 dBpulse. The magnitude of PPI (PPI %) was determined, after summarizing the startle responses in PULSEALONE and PREPULSE+PULSE trials, according to the equation (PULSEALON−PREPULSE+PULSE)/PULSEALONE×100%. The tested compound or vehicle was given to the animal for 15 min, followed by methamphetamine (2 mg/kg). The PPI test was conducted 10 min after injection of methamphetamine. Data were expressed as the mean±S.E.M. Statistical comparisons among groups were analyzed by ANOVA with Tukey post hoc test, and differences between groups were analyzed by Student's t-test. Two-way ANOVA with Bonferroni's post hoc test was used to analyze differences in the time courses of locomotor activity among groups. Differences were considered significant if P<0.05.
Methamphetamine and apomorphine were dissolved in normal saline for i.p. And s.c. Injections, respectively. Tested compounds and haloperidol, when given by i.p. Injection, were dissolved in a vehicle containing 20% dmso, 20% Cremophor® el (polyoxyethylene castor, sigma-aldrich) and 60% normal saline. Furosemide was dissolved (20 nmole/μL) in dimethylsulfoxide for intra-cerebellar microinjection the i.p. or s.c. Injection volume was 10 mL/kg.

T1 sequence (P30191 20-453): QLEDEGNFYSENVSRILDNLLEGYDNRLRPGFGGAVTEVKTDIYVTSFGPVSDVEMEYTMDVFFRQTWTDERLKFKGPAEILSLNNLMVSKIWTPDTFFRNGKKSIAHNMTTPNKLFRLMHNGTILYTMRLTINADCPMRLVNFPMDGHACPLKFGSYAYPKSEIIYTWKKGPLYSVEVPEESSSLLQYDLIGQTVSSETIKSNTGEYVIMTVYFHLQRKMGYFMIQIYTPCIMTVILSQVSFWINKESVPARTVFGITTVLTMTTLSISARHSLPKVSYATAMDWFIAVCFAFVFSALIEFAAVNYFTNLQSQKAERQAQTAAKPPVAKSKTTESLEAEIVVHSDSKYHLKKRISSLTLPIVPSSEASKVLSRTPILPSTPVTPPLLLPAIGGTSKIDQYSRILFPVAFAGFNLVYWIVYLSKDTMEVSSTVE
T1 sequence (P63079 26-473): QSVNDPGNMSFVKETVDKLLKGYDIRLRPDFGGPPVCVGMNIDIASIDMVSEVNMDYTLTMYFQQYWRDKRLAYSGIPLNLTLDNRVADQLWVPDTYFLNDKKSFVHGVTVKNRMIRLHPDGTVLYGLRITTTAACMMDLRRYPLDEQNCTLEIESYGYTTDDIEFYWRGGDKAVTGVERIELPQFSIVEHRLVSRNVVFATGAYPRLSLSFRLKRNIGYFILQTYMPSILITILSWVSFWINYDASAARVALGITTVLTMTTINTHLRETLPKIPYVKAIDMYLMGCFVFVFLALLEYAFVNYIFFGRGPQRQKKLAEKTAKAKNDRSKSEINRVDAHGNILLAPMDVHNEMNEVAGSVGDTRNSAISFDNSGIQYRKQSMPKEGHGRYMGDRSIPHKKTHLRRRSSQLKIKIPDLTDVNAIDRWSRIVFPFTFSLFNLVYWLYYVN
T1 sequence (P18508 39-466 partner): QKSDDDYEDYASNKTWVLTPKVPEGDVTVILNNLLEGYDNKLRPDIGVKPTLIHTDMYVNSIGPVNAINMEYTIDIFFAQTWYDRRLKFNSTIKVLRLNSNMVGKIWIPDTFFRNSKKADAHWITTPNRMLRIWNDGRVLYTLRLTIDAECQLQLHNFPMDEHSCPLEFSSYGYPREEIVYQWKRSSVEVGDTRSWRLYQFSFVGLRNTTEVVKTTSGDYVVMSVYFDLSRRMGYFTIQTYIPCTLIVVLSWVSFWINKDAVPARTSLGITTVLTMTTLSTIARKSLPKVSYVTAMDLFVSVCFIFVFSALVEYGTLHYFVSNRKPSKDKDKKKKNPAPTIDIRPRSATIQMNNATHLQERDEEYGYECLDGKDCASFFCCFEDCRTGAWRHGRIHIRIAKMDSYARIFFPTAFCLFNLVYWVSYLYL

Row | Structure (SMILES) | % left after 1 hr. (MLM) [1] | Half-life (min) (MLM) [1] | % left after 1 hr. (HLM) [2] | Half-life (min) (HLM) [2] | half-life at 10 μM ([1]; mouse, liver microsomes, pH 7.4, read-out: Half-life (min) (MLM)) | half-life at 10 μM ([2]; human, liver microsomes, pH 7.4, read-out: Half-life (min) (HLM)) | selectivity for α6β3γ2 over other αxβ3γ2 receptors [3] | effect of intra-cerebellar furosemide on the rescue of PPI ([4]; furosemide 10 nmol intra-cerebellar microinjection) | rescue of METH-impaired PPI [4] | rescue of METH-impaired PPI ([4]; listed as C11)
1 | [2H]C([2H])([2H])Oc1ccc(-n2nc3c4cc(Cl)ccc4[nH]cc-3c2=O)cc1 [DK-I-93-1, 8-Chloro-2-(4-methoxy-d3-phenyl)-2,5-dihydro-3H-pyrazolo[4,3-c]quinolin-3-one] | 85.53 ± 0.07% | 263 ± 5.96 min | 92.2 ± 0.15% | 640 ± 126 min |  |  |  |  |  | 
2 | [2H]C([2H])([2H])Oc1ccc(-n2nc3c4cc(Cl)ccc4[nH]cc-3c2=O)cn1 [DK-II-59-1, 8-Chloro-2-(6-methoxy-d3-pyridin-3-yl)-2,5-dihydro-3H-pyrazolo[4,3-c]quinolin-3-one] | 85.1 ± 0.10% | 250.62 ± 13 min | 93 ± 0.12% | 725.8 ± 146 min |  |  |  |  |  | 
3 | COc1ccc(-n2nc3c4cc(Cl)ccc4[nH]cc-3c2=O)cn1 [DK-II-18-1, 8-Chloro-2-(6-methoxypyridin-3-yl)-2,5-dihydro-3H-pyrazolo[4,3-c]quinolin-3-one] | 85.6 ± 0.12% | 265 ± 17 min | 91.6 ± 0.10% | 511 ± 44 min |  |  |  |  |  | 
4 | [2H]C([2H])([2H])Oc1ccc(-n2nc3c4ccc(Br)cc4[nH]cc-3c2=O)cn1 [DK-II-58-1, 7-Bromo-2-(6-methoxy-d3-pyridin-3-yl)-2,5-dihydro-3H-pyrazolo[4,3-c]quinolin-3-one] | 98.39 ± 0.06% | 4250 ± 0.001 min | 97.8 ± 0.06% | 2341 ± 0.001 min |  |  |  |  |  | 
5 | COc1ccc2c3nn(-c4ccc(OC)nc4)c(=O)c-3c[nH]c2c1 [DK-II-13-1, 7-Methoxy-2-(6-methoxypyridin-3-yl)-2,5-dihydro-3H-pyrazolo[4,3-c]quinolin-3-one] | 74.77 ± 0.12% | 139.2 ± 5.8 min | 93 ± 0.14% | 794 ± 182 min |  |  |  |  |  | 
6 | COc1ccc(-n2nc3c4cc(Cl)ccc4[nH]cc-3c2=O)cc1 [Compound 11, 8-Chloro-2-(4-methoxyphenyl)-2,5-dihydro-3H-pyrazolo[4,3-c]quinolin-3-one] | 69.2 ± 0.15% |  | 72.5 ± 0.11% |  | 116 ± 5.2 min | 135 ± 5 min | strongly modulates other GABAA receptor subtypes | prevented | effective; also recorded: significantly rescued | significantly rescued
7 | [2H]C([2H])([2H])Oc1ccc(-n2nc3c4ccc(OC)cc4[nH]cc-3c2=O)cn1 [DK-II-60-1, 7-Methoxy-2-(6-methoxy-d3-pyridin-3-yl)-2,5-dihydro-3H-pyrazolo[4,3-c]quinolin-3-one] | 92.4 ± 0.12% | 640 ± 102 min | 92.5 ± 0.12% | 592.5 ± 96 min |  |  |  |  |  | 
